{
  "source": "patent US20040171613A1",
  "about": "“Therapeutic agent for non-immediate type allergic diseases” (JAPAN TOBACCO INC., priority 2001, published 2004)",
  "key": {"[1]": {"system": "IgE-dependent allergic dermatitis", "conditions": "mouse, in vivo, po", "quoted_text": "(§1) Using a triphase dermatitis model that can be induced by antigen in mouse passively sensitizationed with IgE, the actions of CB2 inverse agonist and CB2 agonist were examined.\n(§2) *Animal: 8 to 10 weeks-old Female BALB/c mouse (Japan SLC Inc.) was used.\n(§3) Preparation of solvent: MC was dissolved in distilled water to prepare an aqueous 0.5% MC solution.\n(§4) Anti-DNP IgE (antibody against DNP; Yamasa Corp.) was prepared to 15 μg/mL with physiological saline. 0.2 mL of the resulting solution was given through the caudal vein to the mouse.\n(§5) Antigen preparation: 0.15% (w/v) of DNFB (2,4-dinitrofluorobenzene) was prepared in a mixed solution of acetone and olive oil (3:1, v/v) on needed basis.\n(§6) Antigen application: 25 μl of the antigen solution was applied on each side of both of the ears 24 hours after the administration of the anti-DNP IgE.\n(§7) From the next day of the antigen application to day 8 after the antigen application, 10 mL/kg test compound was orally administered once a day 9 times in total. On the day of antigen application, the test compound was administered one hour before the antigen application and the test compound was administered one hour before the measurement of the thickness of the ear on day 8 after the antigen application.\n(§8) Before and 8 days after the antigen application, the thickness of the ear was measured with a dial thickness gauge (Mitutoyo Corp.). The difference between the value measured before the antigen application and at each time point was used as an index of swelling.\n(§9) After the measurement of ear swelling, spleen and thymus were harvested to weigh their wet weights."}, "[2]": {"system": "IgE-dependent allergic dermatitis", "conditions": "mouse, in vivo", "quoted_text": "as §1, §2, §3, §4, §5, §6, §7, §8, §9"}, "[3]": {"system": "rat mast cell line RBL-2H3", "test": "leukotriene production from rat mast cell line", "assay_type": "cell-based", "conditions": "anti-DNP IgE sensitization, DNP-BSA stimulation; 0.1 to 10 μM", "experimental": "Then, the resulting solutions were diluted with E-MEM (EAGLE-MEM; Nikken Biomedical Lab.) to prepare solutions of 100 to 1 μM (1% DMSO solution). To act the solutions on cells, they were further diluted to 10 μM to 0.1 μM (0.1% DMSO solution).\n1 mM PIPES (Dojin Molecular Technologies, Inc.), […], 0.5 mM KCl, 0.06 mM MgCl2, 0.1 mM CaCl2, 0.55 mM glucose and 0.1% BSA (bovine serum albumin; Sigma) were prepared with purified water and then adjusted to pH 7.4 using NaOH.\n1 mg/mL anti-DNP IgE (monoclonal murine anti-DNP IgE; Yamasa Corp.) was diluted to 1000 fold with the PIPES buffer to prepare a 1 μg/mL solution.\n10 mg/mL DNP-BSA was diluted to a concentration of 10 μg/mL with the PIPES buffer.\nCulture medium: E-MEM containing heat-inactivated 10% FCS (fetal calf serum; Morgate Biotech), 100 units/mL penicillin and 100 μg/mL streptomycin (in the form of penicillin/streptomycin; GIBCO).\nAfter centrifuging and washing rat mast cell line RBL-2H3 (Human Science; 1×10^6cells/mL/tube) with the above-described culture medium, the cells were resuspended in the culture medium and cultured in a 75-cm^2 flask (Falcon 353136) for 3 days. […]\n30 minutes after the antigen stimulation, 20 μL/well supernatant was recovered and the LTs amount was measured according to manufacturer's protocol of LTs EIA kit (Amersham Pharmacia)."}, "CB2": {"molecular_target": "CB2 (Homo sapiens, UniProt P34972)", "sequence (P34972 whole entry, species assumed)": "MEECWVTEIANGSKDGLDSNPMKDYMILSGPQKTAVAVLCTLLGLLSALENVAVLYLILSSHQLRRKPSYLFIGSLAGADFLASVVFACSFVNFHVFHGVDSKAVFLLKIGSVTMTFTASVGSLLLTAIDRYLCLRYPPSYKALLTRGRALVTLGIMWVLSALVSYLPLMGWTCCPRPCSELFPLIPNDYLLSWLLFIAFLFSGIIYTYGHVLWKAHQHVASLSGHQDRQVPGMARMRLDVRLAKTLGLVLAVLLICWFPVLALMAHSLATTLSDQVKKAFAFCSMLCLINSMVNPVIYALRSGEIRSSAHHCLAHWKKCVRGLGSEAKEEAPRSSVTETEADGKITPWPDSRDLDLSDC", "set-up": "host or cells: CHO cells expressing CB2", "conditions": "cited from earlier work"}, "[4]": {"system": "DNFB-induced allergic dermatitis", "test": "murine DNFB-induced allergic dermatitis model", "assay_type": "in vivo, mouse", "experimental": "The model is produced by repeating antigen sensitization and induction in mouse to induce contact dermatitis that involves increase of IgE antibody titer, i.e., inflammation similar to atopic dermatitis (J. Allergy Clin. Immunol., 100 (6Pt2), 39-44, December 1997).\nFurthermore, by dilution, 0.1 mg/mL and 0.01 mg/mL suspensions were prepared. In addition, as positive controls, 0.5 mg/mL, 0.2 mg/mL and 0.1 mg/mL solutions of prednisolone (Sigma) were similarly prepared.\nDuring the period from the next day of the third antigen application to the next day of the fifth antigen application, 10 mL/kg of the above-described test compound was administered once a day 15 times in total.\nThe difference of thickness was used as an index of swelling. FIGS. 1 and 2 show the results of the measurement at the fourth and fifth antigen applications, together with the results of the positive controls.\n24 hours after the fifth antigen application, the spleen was harvested from the mouse exsanguinated under anesthesia with ether. The wet weight of the spleen was measured."}, "antigen-induced asthma": {"system": "antigen-induced asthma", "test": "antigen-induced immediate type asthma, late-type asthma and airway hypersensitivity in guinea pigs", "assay_type": "in vivo, guinea pig", "conditions": "oral, compound A 10, 30, 100 mg/kg, positive controls 30 mg/kg", "experimental": "The test compound was further diluted to 20, 6 and 2 mg/mL on needed basis. As positive controls, 6 mg/mL pranlukast hydrate (extracted from Onon™ (Ono Pharmaceutical Co., Ltd.)) and 6 mg/mL prednisolone (Sigma) were similarly prepared.\nSensitization: Using an ultrasonic nebulizer (NE-U12; OMRON), a 6-weeks old male Hartley guinea pig (Kudo, Co., Ltd.) was continuously inhaled with 1% OVA (ovalbumin; Sigma)-containing physiological saline for 10 minutes per day for 8 consecutive days.\nAntigen challenge: One week after the last sensitization, 2% OVA was similarly inhaled for 5 minutes. 24 hours before and one hour after the OVA challenge, metyrapone-containing physiological saline (Aldrich, 10 mg/mL) was administered intravenously and 30 minutes before the OVA induction, pyrilamine-containing physiological saline (Sigma, 10 mg/kg) was administered intraperitoneally.\nDuring the 8 days of sensitization, the test compound was given one hour before the sensitization. On the day of the antigen challenge, the test compound was given one hour before the challenge. As solvent controls, the vehicle was similarly administered in accordance with OVA induction and physiological saline induction.\nAs positive controls, pranlukast hydrate was administered one hour before the challenge, while prednisolone was administered 16 hours and 2 hours before the challenge. The animals were fasted 16 to 18 hours before the oral administration.\nUsing total respiratory function analysis system (Pulmos-I, M.I.P.S. Company), the pre value was measured. Subsequently, specific airway resistance (hereinafter referred to as sRaw) per 100 breathes was measured one minute and 2, 4, 5, 6, 7 and 8 hours after the OVA challenge, and further once between 22 to 26 hours after the challenge, respectively. The average was used as sRaw at each measured time point. The increment ratio of sRaw was calculated by the following formula.\nIncrement ratio of sRaw (%)=[(sRaw at each measured time point −sRaw before the challenge)/(sRaw before the challenge)]×100\nTwenty-two to 26 hours after the antigen challenge, each of 0.0625, 0.125, 0.25, 0.5, 1 and 2 mg/mL solutions of physiological saline and acetylcholine (hereinafter referred to as ACh) were sequentially inhaled for one minute, until the sRaw was 2-fold or more to the baseline sRaw (sRaw after inhalation of physiological saline). Based on the ACh concentration and the concentration-resistance curve of sRaw, the ACh concentration required for the sRaw to achieve 100% increase from the baseline sRaw, i.e., PC100ACh was determined."}},
  "data": [
    {"compound": "CCCCCOc1c(OC)ccc2cc(C(=O)NCc3ccc4c(c3)OCO4)c(=O)[nH]c12", "note": "[Compound A, N-(benzo[1,3]dioxol-5-ylmethyl)-7-methoxy-2-oxo-8-pentyloxy-1,2-dihydroquinoline-3-carboxamide]", "values": [
      {"measurement": "wet weight of the spleen", "setting": "[1]", "result": "no apparent changes"},
      {"measurement": "wet weight of the thymus", "setting": "[1]", "result": "no apparent changes"},
      {"measurement": "ear swelling, very late phase", "setting": "[2]", "result": "significantly suppressed ear swelling"},
      {"measurement": "leukotriene production (C4/D4/E4)", "setting": "[3]", "result": "suppressive effect"},
      {"measurement": "forskolin-stimulated cAMP production", "setting": "CB2", "result": "elevate the production of cyclic adenosine-phosphate (cAMP)"},
      {"measurement": "spleen wet weight", "setting": "[4]; 24 hours after the fifth antigen application, oral dosing", "result": "No decrease of spleen weight"},
      {"measurement": "ear swelling (increase of the thickness of the ear)", "setting": "[4]; BALB/c mouse, oral once a day from day after third antigen application, 24 hours after fourth and fifth antigen application", "result": "significantly suppressed ear swelling"},
      {"measurement": "airway hypersensitivity (PC100ACh)", "setting": "antigen-induced asthma; 22 to 26 hours after antigen challenge", "result": "suppressed"},
      {"measurement": "immediate type asthma response (sRaw immediately after antigen challenge)", "setting": "antigen-induced asthma", "result": "suppressed"},
      {"measurement": "late asthmatic response (sRaw over 4 to 8 hours after antigen challenge)", "setting": "antigen-induced asthma", "result": "suppressed"}
    ]}
  ]
}
